These results are taken from patent US5348949A, “Method of preparing N-oxo-tetrahydro-β-carbolines” (Duphar International Research B.V., priority 1989, dated 1994).

≈ marks a conversion by molar mass, not a printed value. Entries after “also recorded” stand apart in the source; their conditions may differ. Read-outs that look alike come from different tables or passages of the source.

Data set [1] can be described thus: in vitro. The settings on record: monkey, vero cells.
Data set [2] is described as follows: in vitro. To be noted: human, hela cells.
In the next data set the test system is Reovirus-1. Description: inhibition of virus induced cytopathogenicity, Vero cells, Reovirus-1. Type of data set: cell-based. The procedure:
(§1) Antiviral activity of some eudistomin derivatives was determined in a large number of in-vitro assays as described in reference 9. These tests are all based on the inhibition of virus induced cytopathogenicity. Depending upon the virus studied, different cell cultures were used. […] New compound 67 has the additional advantage of a 10-fold higher potency as compared with known compound 63.

For a further data set, the system named is Coxsackie virus B4. Description: inhibition of virus induced cytopathogenicity, Hela cells, Coxsackie virus B4. The settings on record: Enterovirus B. Type of data set: cell-based. Here is the method:
as §1
(In general: Protection from cytopathic effect is a common read-out in antiviral testing.)

The test system of another data set is parainfluenza-3 virus. Description: inhibition of virus induced cytopathogenicity, Vero cells, parainfluenza-3 virus. Type of data set: cell-based. Here is the method: as §1
Data set [3] relates to Herpes simplex virus-1 (McInyre). In kind it is cell-based. The settings on record: Human alphaherpesvirus 1; PRK cells. Here is the method:
as §1

The test system of data set [4] is Herpes simplex virus-1 (F). Type of data set: cell-based. To be noted: Human alphaherpesvirus 1; PRK cells. The procedure: as §1
In data set [5] the test system is Herpes simplex virus-2 (G). In kind it is cell-based. To be noted: Human alphaherpesvirus 2; PRK cells. The procedure:
as §1

For data set [6], the system named is Herpes simplex virus-2 (Lyons). In kind it is cell-based. To be noted: Human alphaherpesvirus 2; PRK cells. Here is the method: as §1
In data set [7] the test system is Herpes simplex virus-2 (196). Type of data set: cell-based. The settings on record: Human alphaherpesvirus 2; PRK cells. Here is the method:
as §1

The subject of data set [8] is Herpes simplex virus-1 (KOS). In kind it is cell-based. To be noted: Human alphaherpesvirus 1; PRK cells. The procedure:
as §1

Data set [9] concerns influenza virus B (Singapore). Description: microbe, parasite or virus in culture. In kind it is cell-based. The settings on record: unidentified influenza virus, read-out: MIC influenza virus B (Singapore).
The next data set concerns Sindbis virus. Description: inhibition of virus induced cytopathogenicity, Vero cells, Sindbis virus. Type of data set: cell-based. The procedure:
as §1

A further data set concerns Coxsasckie virus B4. The experiment in a line: inhibition of virus induced cytopathogenicity, Vero cells, Coxsackie virus B4. Type of data set: cell-based. The settings on record: Enterovirus B. The procedure:
as §1

In another data set the test system is Vaccinia virus. The experiment in a line: microbe, parasite or virus in culture. In kind it is cell-based. To be noted: Orthopoxvirus vaccinia, read-out: MIC Vaccinia virus.
For a further data set, the system named is P 388 leukemia cells. Description: inhibition of P 388 leukemia cells colony formation (in vitro antitumour). In kind it is cell-based. To be noted: for IC50: Mus musculus, P388, read-out: ID50. Here is the method:
The antitumour activity of some eudistomin derivatives and the references antitumour drug was assessed in an invitro test with high predictive power for in-vivo activity. In this assay the inhibition of P 388 leukemia cells colony formation was determined at several concentrations of the test compounds as described in reference 8. The activity is expressed as an ID50 value, which indicates the dose causing 50% inhibition with respect to untreated control cells.

Data set [10] is described as follows: in vitro. To be noted: rabbit, primary rabbit kidney cells.
Data set [11] deals with Respiratory syncytial virus (Lung). The experiment in a line: inhibition of virus induced cytopathogenicity, Hela cells, respiratory syncytial virus (Lung). Type of data set: cell-based. The settings on record: human respiratory syncytial virus. The procedure:
as §1

Data set [12] can be described thus: in vitro. The settings on record: dog, mdck.
In a further data set the test system is 22 antiviral test models. The experiment in a line: 22 antiviral assays taken together (summary statements). Type of data set: cell-based. The procedure: as §1
A further data set relates to Semliki forest virus. Description: inhibition of virus induced cytopathogenicity, Vero cells, Semliki forest virus. Type of data set: cell-based. The procedure:
as §1

In data set [13] the test system is influenza virus A (Ishikawa). The experiment in a line: microbe, parasite or virus in culture. In kind it is cell-based. The settings on record: unidentified influenza virus, read-out: MIC influenza virus A (Ishikawa).
The next data set deals with Polio virus. The experiment in a line: microbe, parasite or virus in culture. Type of data set: cell-based. To be noted: read-out: MIC Polio virus.
The subject of data set [14] is Vesicular stomatitis virus. Description: microbe, parasite or virus in culture. Type of data set: cell-based. To be noted: read-out: MIC Vesicular stomatitis virus.
In data set [15] the test system is Vesicular stomatitis virus. Description: microbe, parasite or virus in culture. In kind it is cell-based. The settings on record: read-out: MIC Vesicular stomatitis virus. The source holds these as a separate data set.
Data set [16] in a line: cytotoxicity in MDCK cell cultures. The settings on record: dog.
Data set [17] can be described thus: cytotoxicity in primary rabbit kidney (PRK) cell cultures. To be noted: primary rabbit kidney cells.
The nature of data set [18]: cytotoxicity in Vero cell cultures. To be noted: monkey, vero cells.
Data set [19] in a line: cytotoxicity in Hela cell cultures. The settings on record: human, hela cells.

Turning to `COc1ccc2[nH]c3c(c2c1)CCN1OCSCC(N)C31` [Compound 67, (1S,13bS)-5-methoxy Eudistomin L], the MCC was not below 1 µg/mL in the data set “in vitro [1]”, 2 µg/mL in the data set “in vitro [2]”, not below 2.5 µg/mL in “in vitro [10]” and 0.8 µg/mL in “in vitro [12]”. Also, the MIC with Reovirus-1 was 0.045 µg/mL (≈ 0.147 µM); in the data set on Coxsackie virus B4, 0.045 µg/mL (≈ 0.147 µM); with parainfluenza-3 virus, 0.55 µg/mL (≈ 1.8 µM); in data set [3], 0.013 µg/mL (≈ 0.0426 µM); in [4], 0.039 µg/mL (≈ 0.128 µM); in [5], 0.012 µg/mL (≈ 0.0393 µM). Moreover, the MIC in data set [6] is 0.023 µg/mL (≈ 0.0753 µM); in data set [7] it was 0.014 µg/mL (≈ 0.0458 µM); in data set [8] it was 0.045 µg/mL (≈ 0.147 µM); in [9], more than 0.32 µg/mL; in the data set with Sindbis virus, 0.045 µg/mL (≈ 0.147 µM); in the data set on Coxsasckie virus B4, 0.07 µg/mL (≈ 0.229 µM). Besides, the MIC in the data set on Vaccinia virus is 0.012 µg/mL (≈ 0.0393 µM); in [11] it was 0.15 µg/mL (≈ 0.491 µM); in the data set with Semliki forest virus, 0.11 µg/mL (≈ 0.36 µM); in [13], more than 0.32 µg/mL; with Polio virus, 0.045 µg/mL (≈ 0.147 µM). Besides, the IC50 in the data set with P 388 leukemia cells came out at 3.8 µg/mL (≈ 12.4 µM). Moreover, the “spectrum of antiviral activity” value in the data set with 22 antiviral test models is “exceptionally wide range of activities; also recorded: very broad spectrum of antiviral activity”.

As to `NC(=O)c1ncn([C@@H]2O[C@H](CO)[C@@H](O)[C@H]2O)n1` [Ribavirin, ribavirin, reference compound], the MCC is more than 400 µg/mL in “in vitro [1]”, not below 400 µg/mL in the data set “in vitro [2]”, not below 400 µg/mL in “in vitro [10]” and more than 200 µg/mL in “in vitro [12]”. Further, the MIC against Reovirus-1 was 125 µg/mL (≈ 512 µM); against Coxsackie virus B4, 70 µg/mL (≈ 287 µM); with parainfluenza-3 virus it was 135 µg/mL (≈ 553 µM); in [3], more than 200 µg/mL; in data set [4], more than 200 µg/mL; in data set [5] it was more than 200 µg/mL. Moreover, the MIC in data set [6] was more than 200 µg/mL; in data set [7] it was more than 200 µg/mL; in data set [8], more than 200 µg/mL; in data set [9] it was 15 µg/mL (≈ 61.4 µM); in the data set with Sindbis virus it was more than 235 µg/mL; against Coxsasckie virus B4, more than 300 µg/mL. Further, the MIC with Vaccinia virus is 30 µg/mL (≈ 123 µM); in [11] it was 3 µg/mL (≈ 12.3 µM); against Semliki forest virus, more than 300 µg/mL; in data set [13], 15 µg/mL (≈ 61.4 µM); in the data set on Polio virus it was 110 µg/mL (≈ 450 µM).

In the case of `N[C@@H]1CSCON2CCc3c([nH]c4ccccc34)[C@H]12` [Compound 63, (1S.13bS)-debromo Eudistomin L], the MCC was not below 4 µg/mL in the data set “in vitro [1]”, not below 4 µg/mL in the data set “in vitro [2]”, not below 25 µg/mL in “in vitro [10]” and 8 µg/mL in “in vitro [12]”. In addition, the MIC was 0.2 µg/mL (≈ 0.726 µM) in [14]; 0.4 µg/mL (≈ 1.45 µM) against Reovirus-1; 0.55 µg/mL (≈ 2 µM) in the data set on Coxsackie virus B4; more than 0.6 µg/mL with parainfluenza-3 virus; 0.2 µg/mL (≈ 0.726 µM) in data set [3]; 0.25 µg/mL (≈ 0.908 µM) in data set [4]. Further, the MIC came out at 0.2 µg/mL (≈ 0.726 µM) in data set [5]; 0.38 µg/mL (≈ 1.38 µM) in data set [6]; 0.2 µg/mL (≈ 0.726 µM) in [7]; 1.35 µg/mL (≈ 4.9 µM) in [8]; 0.8 µg/mL (≈ 2.91 µM) in [9]; 0.35 µg/mL (≈ 1.27 µM) in the data set with Sindbis virus. In addition, the MIC was 0.55 µg/mL (≈ 2 µM) in the data set on Coxsasckie virus B4; 0.25 µg/mL (≈ 0.908 µM) in the data set on Vaccinia virus; 0.2 µg/mL (≈ 0.726 µM) in [15]; 0.8 µg/mL (≈ 2.91 µM) in [11]; 0.45 µg/mL (≈ 1.63 µM) against Semliki forest virus; 0.8 µg/mL (≈ 2.91 µM) in data set [13]. In addition, in the data set with Polio virus, the MIC was determined as 0.7 µg/mL (≈ 2.54 µM). Further, the IC50 in the data set with P 388 leukemia cells was found to be 42 µg/mL (≈ 153 µM). Further, the “spectrum of antiviral activity” value in the data set with 22 antiviral test models is on record as “exceptionally wide range of activities; also recorded: very broad spectrum of antiviral activity”.

On to `c1ccc2c3c([nH]c2c1)C1CCSCON1CC3` (racemic) [Compound 50, (±)-Deamino, debromo Eudistomin L], for which the MIC was more than 10 µg/mL with Reovirus-1; more than 10 µg/mL with Coxsackie virus B4; more than 10 µg/mL in the data set on parainfluenza-3 virus; more than 70 µg/mL in data set [3]; more than 70 µg/mL in [4]; more than 120 µg/mL in data set [5]. For the same compound, the MIC was more than 70 µg/mL in data set [6]; more than 70 µg/mL in [7]; more than 70 µg/mL in data set [8]; more than 40 µg/mL in [9]; more than 10 µg/mL in the data set on Sindbis virus; more than 25 µg/mL in the data set on Coxsasckie virus B4. Also, the MIC in the data set on Vaccinia virus is more than 70 µg/mL; in data set [11] it was more than 8 µg/mL; in the data set with Semliki forest virus it was more than 25 µg/mL; in [13] it was more than 40 µg/mL; in the data set with Polio virus it was more than 10 µg/mL. For the same compound, the MCC was 80 µg/mL in data set [16], not below 120 µg/mL in [17], not below 40 µg/mL in data set [18] and not below 30 µg/mL in [19]. In addition, the ID50 entry with P 388 leukemia cells (dose causing 50% inhibition of colony formation vs untreated control cells) is listed as “no activity at 1.0”.

For `COc1cccc2c1C(=O)c1c(O)c3c(c(O)c1C2=O)C[C@@](O)(C(=O)CO)C[C@@H]3O[C@H]1C[C@H](N)[C@H](O)[C@H](C)O1` [adriamycin, reference compound], the IC50 in the data set on P 388 leukemia cells was determined as 20 µg/mL (≈ 36.8 µM).
